From US12428406B2 (PMV Pharmaceuticals, Inc., priority 2019, dated 2025)

What follows are compounds tested against T1, p53 Y220C (Homo sapiens, UniProt P04637, Y220C) (assay: In vitro DNA binding activity assay (HTRF / TR-FRET): stabilization of p53 Y220C and increase of its DNA binding activity). Details: recombinant His-tagged p53 Y220C DNA binding domain (aa 94-312), biotin-labeled consensus DNA, incubated at 27° C. or 29° C. for 60 min.
T1 construct: The recombinant protein was a truncation mutant containing only amino acids 94-312 of p53; made in house; host or cells: E. coli
T1 sequence (P04637 94-312, change not shown): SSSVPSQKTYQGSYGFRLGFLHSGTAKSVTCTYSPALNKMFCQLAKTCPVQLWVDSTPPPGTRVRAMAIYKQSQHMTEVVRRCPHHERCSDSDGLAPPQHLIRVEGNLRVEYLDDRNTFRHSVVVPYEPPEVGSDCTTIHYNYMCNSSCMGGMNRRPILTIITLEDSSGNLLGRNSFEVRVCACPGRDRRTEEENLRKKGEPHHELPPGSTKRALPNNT
Type: biochemical
Summary of the method: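 Test compounds, diluted 3-fold in DMSO from 4.5 mM stocks, were incubated with bacterially expressed His-tagged p53 Y220C at room temperature for 15 min, and after a further step for 20 min. DNA binding was detected by time-resolved FRET between APC and europium labels. SC150 marks the concentration increasing binding by 50%.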
With `COCC(=O)N1CC[C@H](Nc2cccc3c2cc(C#CCNc2ccc(S(C)(=O)=O)cc2OC)n3CC(F)(F)F)[C@H](F)C1` [Compound 867A, 1-[(3R,4S)-3-fluoro-4-[(2-{3-[(4-methanesulfonyl-2-methoxyphenyl)amino]prop-1-yn-1-yl}-1-(2,2,2-trifluoroethyl)-1H-indol-4-yl)amino]piperidin-1-yl]-2-methoxyethan-1-one] the “SC150 (concentration of the compound required to increase the DNA binding activity by 50%)” value was “+ (+ = 0 μM ≤ SC150 < 0.05 μM)”. `COCC(CN1CCC(Nc2cccc3c2cc(C#CCNc2ccc(S(N)(=O)=O)cc2OC)n3CC(F)(F)F)CC1)OC` (stereo not shown) [Compound 581A, 4-{[3-(4-{[1-(2,3-dimethoxypropyl)piperidin-4-yl]amino}-1-(2,2,2-trifluoroethyl)-1H-indol-2-yl)prop-2-yn-1-yl]amino}-3-methoxybenzene-1-sulfonamide] was tested, and the “SC150 (concentration of the compound required to increase the DNA binding activity by 50%)” value was “+ (+ = 0 μM ≤ SC150 < 0.05 μM)”. `COc1cc(S(C)(=O)=O)ccc1NCC#Cc1cc2c(N[C@@H]3CN(C)CC[C@@H]3F)cccc2n1CC(F)(F)F` (racemic) [Compound 1067A, rac-N-[(3R,4S)-4-fluoro-1-methylpiperidin-3-yl]-2-{3-[(4-methanesulfonyl-2-methoxyphenyl)amino]prop-1-yn-1-yl}-1-(2,2,2-trifluoroethyl)-1H-indol-4-amine] was tested, and the “SC150 (concentration of the compound required to increase the DNA binding activity by 50%)” value was “+ (+ = 0 μM ≤ SC150 < 0.05 μM)”. In the case of `CNS(=O)(=O)c1ccc(NCC#Cc2cc3c(N[C@H]4CC[C@H](N5CCOCC5)CC4)cccc3n2CC(F)(F)F)c(OC)c1` [Compound 187A, 3-methoxy-N-methyl-4-{[3-(4-{[(1R,4R)-4-(morpholin-4-yl)cyclohexyl]amino}-1-(2,2,2-trifluoroethyl)-1H-indol-2-yl)prop-2-yn-1-yl]amino}benzene-1-sulfonamide], the “SC150 (concentration of the compound required to increase the DNA binding activity by 50%)” value is reported as “+ (+ = 0 μM ≤ SC150 < 0.05 μM)”. For `COc1cc(S(C)(=O)=O)ccc1NCC#Cc1cc2c(NC3CCN(CCCS(C)(=O)=O)CC3)cccc2n1CC(F)(F)F` [Compound 706A, 2-{3-[(4-methanesulfonyl-2-methoxyphenyl)amino]prop-1-yn-1-yl}-N-[1-(3-methanesulfonylpropyl)piperidin-4-yl]-1-(2,2,2-trifluoroethyl)-1H-indol-4-amine], the “SC150 (concentration of the compound required to increase the DNA binding activity by 50%)” value was “+ (+ = 0 μM ≤ SC150 < 0.05 μM)”. With `CCC(=O)NS(=O)(=O)c1ccc(NCC#Cc2cc3c(N[C@H]4CC[C@@H](N5CC6(COC6)C5)CC4)cccc3n2CC(F)(F)F)c(OC)c1` [Compound 207A, N-(3-methoxy-4-{[3-(4-{[(1S,4S)-4-{2-oxa-6-azaspiro[3.3]heptan-6-yl}cyclo-hexyl]amino}-1-(2,2,2-trifluoroethyl)-1H-indol-2-yl)prop-2-yn-1-yl]amino}benzene-sulfonyl)propanamide] the “SC150 (concentration of the compound required to increase the DNA binding activity by 50%)” value was “+ (+ = 0 μM ≤ SC150 < 0.05 μM)”. `COc1cc(S(N)(=O)=O)ccc1NCC#Cc1cc2c(N[C@H]3CC[C@H](N4CC5(CCC5)C4)CC3)cccc2n1CC(F)(F)F` [Compound 198A, 3-methoxy-4-{[3-(4-{[(1R,4R)-4-{2-azaspiro[3.3]heptan-2-yl}cyclohexyl]amino}-1-(2,2,2-trifluoroethyl)-1H-indol-2-yl)prop-2-yn-1-yl]amino}benzene-1-sulfonamide] was tested, and the “SC150 (concentration of the compound required to increase the DNA binding activity by 50%)” value was “+ (+ = 0 μM ≤ SC150 < 0.05 μM)”. In the case of `COc1cc(S(C)(=O)=O)ccc1NCC#Cc1cc2c(N[C@@H]3CCC4(C[C@@H]3F)OCCO4)cccc2n1CC(F)(F)F` [Compound 870A, N-[(7S,8R)-7-fluoro-1,4-dioxaspiro[4.5]decan-8-yl]-2-{3-[(4-methanesulfonyl-2-methoxyphenyl)amino]prop-1-yn-1-yl}-1-(2,2,2-trifluoroethyl)-1H-indol-4-amine], the “SC150 (concentration of the compound required to increase the DNA binding activity by 50%)” value is reported as “+ (+ = 0 μM ≤ SC150 < 0.05 μM)”. In the case of `CC(=O)N1CCC(Nc2cccc3c2cc(C#CCNc2ccc(S(C)(=O)=O)cc2OCC#N)n3CC(F)(F)F)CC1` [Compound 729A, 2-{2-[(3-{4-[(1-acetylpiperidin-4-yl)amino]-1-(2,2,2-trifluoroethyl)-1H-indol-2-yl}prop-2-yn-1-yl)amino]-5-methanesulfonylphenoxy}acetonitrile], the “SC150 (concentration of the compound required to increase the DNA binding activity by 50%)” value is reported as “+ (+ = 0 μM ≤ SC150 < 0.05 μM)”. In the case of `COCC(O)CN1CCC(Nc2cccc3c2cc(C#CCNc2ccc(S(N)(=O)=O)cc2O)n3CC(F)(F)F)CC1` (stereo not shown) [Compound 634A, 3-hydroxy-4-{[3-(4-{[1-(2-hydroxy-3-methoxypropyl)piperidin-4-yl]amino}-1-(2,2,2-trifluoroethyl)-1H-indol-2-yl)prop-2-yn-1-yl]amino}benzene-1-sulfonamide], the “SC150 (concentration of the compound required to increase the DNA binding activity by 50%)” value is reported as “+ (+ = 0 μM ≤ SC150 < 0.05 μM)”. With `COc1cc(C(=O)NC(C)C)ccc1NCC#Cc1cc2c(N[C@H]3CCN(C)C[C@H]3F)cccc2n1CC(F)(F)F` (racemic) [Compound 817A, rac-4-{[3-(4-{[(3R,4S)-3-fluoro-1-methylpiperidin-4-yl]amino}-1-(2,2,2-trifluoroethyl)-1H-indol-2-yl)prop-2-yn-1-yl]amino}-3-methoxy-N-(propan-2-yl)benzamide] the “SC150 (concentration of the compound required to increase the DNA binding activity by 50%)” value was “+ (+ = 0 μM ≤ SC150 < 0.05 μM)”. With `CCS(=O)(=O)c1ccc(NCC#Cc2cc3c(N[C@H]4CC[C@H](N5CC6(CCOCC6)C5)CC4)cccc3n2CC(F)(F)F)c(OC)c1` [Compound 314A, 2-(3-{[4-(ethanesulfonyl)-2-methoxyphenyl]amino}prop-1-yn-1-yl)-N-[(1R,4R)-4-{7-oxa-2-azaspiro[3.5]nonan-2-yl}cyclohexyl]-1-(2,2,2-trifluoroethyl)-1H-indol-4-amine] the “SC150 (concentration of the compound required to increase the DNA binding activity by 50%)” value was “+ (+ = 0 μM ≤ SC150 < 0.05 μM)”. For `COc1cc(S(C)(=O)=O)ccc1NCC#Cc1cc2c(NC3CCN([C@@H]4CCOC4)CC3)cccc2n1CC(F)(F)F` [Compound 722A, 2-{3-[(4-methanesulfonyl-2-methoxyphenyl)amino]prop-1-yn-1-yl}-N-{1-[(3R)-oxolan-3-yl]piperidin-4-yl}-1-(2,2,2-trifluoroethyl)-1H-indol-4-amine], the “SC150 (concentration of the compound required to increase the DNA binding activity by 50%)” value was “+ (+ = 0 μM ≤ SC150 < 0.05 μM)”. In the case of `CNC(=O)c1ccc(NCC#Cc2cc3c(NC4CCN(C)CC4)cccc3n2CC(F)(F)F)s1` [Compound 524A, N-methyl-5-((3-(4-((1-methylpiperidin-4-yl)amino)-1-(2,2,2-trifluoroethyl)-1H-indol-2-yl)prop-2-yn-1-yl)amino)thiophene-2-carboxamide], the “SC150 (concentration of the compound required to increase the DNA binding activity by 50%)” value is reported as “+ (+ = 0 μM ≤ SC150 < 0.05 μM)”. In the case of `COc1cc(S(C)(=O)=O)ccc1NCC#Cc1cc2c(N[C@H]3CCN(C)C[C@@H]3F)cccc2n1CC(F)(F)F` [Compound 771A], the “SC150 (concentration of the compound required to increase the DNA binding activity by 50%)” value is reported as “+ (+ = 0 μM ≤ SC150 < 0.05 μM)”. In the case of `COc1cc(S(C)(=O)=O)ccc1NCC#Cc1cc2c(NC(=O)N[C@H]3CC[C@@H](N(C)C)CC3)cccc2n1CC(F)(F)F` [Compound 10A, 3-(2-{3-[(4-methanesulfonyl-2-methoxyphenyl)amino]prop-1-yn-1-yl}-1-(2,2,2-trifluoroethyl)-1H-indol-4-yl)-1-[(1S,4S)-4-(dimethylamino)cyclohexyl]urea], the “SC150 (concentration of the compound required to increase the DNA binding activity by 50%)” value is reported as “++++ (++++ = 0.2 μM ≤ SC150 < 1 μM)”.
